The test system of experiment [1] is MOG-EAE in C57BL/6 mice. As to the kind of experiment: Clinical course (clinical score) of active MOG-EAE. It is filed as in vivo. Particulars: oral, from day -20, up to 72 days p.i., vs methocel control. The method, then:
Treatment started at day -20 before the injection of MOG. The following compounds were administered orally to three groups of mice as follows: 1) Ca-monomethyl fumarate 5 mg/kg body weight bid; 2) dimethyl fumarate 15 mg/kg body weight bid; 3) 0.08% methocel as control. For analyzing the clinical course, data was pooled from two experiments (one experiment with 6 mice and another with 8 mice per group yielding a total number of 14 mice per experimental group). Clinical evaluation-Symptoms were scored 1-10 on a daily basis as described in Linker et al., Nat. Med., 2002, […] (see also Hartung et al., Brain, 1988, 11, 1039-1059). Briefly, disease severity was scored as follows: 0, normal; 1, reduced tone of tail; 2, limp tail, impaired righting; 3, absent righting; 4, gait ataxia; 5, mild paraparesis of hindlimbs; 6, moderate paraparesis; 7, severe paraparesis or paraplegia; 8, tetraparesis; 9, moribund; 10, death. Relapses were defined as deterioration by 2 points or more within 2 days. […] Animals were pooled from two experiments (total number of 14 mice per group). Mice were followed until the late phase of the disease (72 days p.i.).

Experiment [2] deals with MOG-EAE in C57BL/6 mice. In words: Blinded histological analysis of spinal cord in MOG-EAE, 72 days p.i. It is filed as in vivo. Particulars: oral, vs methocel control; for numbers of CD 3 positive T cells infiltrating the spinal cord / numbers of Mac-3 positive macrophages and microglia infiltrating the spinal cord: 72 days after induction of MOG-EAE; for axonal loss (relative axonal density) / level of demyelination (% white matter): spinal cord, 72 days p.i. The method, then: Treatment started at day -20 before the injection of MOG. The following compounds were administered orally to three groups of mice as follows: 1) Ca-monomethyl fumarate 5 mg/kg body weight bid; 2) dimethyl fumarate 15 mg/kg body weight bid; 3) 0.08% methocel as control. For analyzing the clinical course, data was pooled from two experiments (one experiment with 6 mice and another with 8 mice per group yielding a total number of 14 mice per experimental group). Histology-One experiment was terminated on day 72 p.i. for histologic evaluation. At that time point, 6 mice in the MMF and 6 mice in the control group were available for analysis. The DMF group consisted of 4 mice (2 non-EAE related drop-outs). Mice were anesthetized with ether, bled and perfused with 25 ml Ringer solution and 10 ml of 4% paraformaldehyde in buffered PBS. Spinal cord was dissected out and fixed overnight in 4% paraformaldehyde in buffered PBS at 4° C. before embedding in paraffin. Paraffin sections were stained with hematoxylin and eosin for visualization of inflammatory infiltrates and Luxol fast blue for visualization of demyelination. Coded sections from cervical, thoracic and lumbar spinal cord were evaluated by a blinded observer by means of overlaying a stereological grid and counting mean CD3 and Mac-3 positive cells within 3 visual fields (each 0.096 mm^2) with the most intense pathology under a 400-fold magnification. The extent of demyelination was assessed by relating the number of grid squares with demyelination to the total number of grid squares containing white matter over an average of 8-10 independent levels of spinal cord per mouse. CD3, Mac-3 positive cells and APP positive axons were quantified on 3 representative sections, each one of cervical, thoracic and lumbar spinal cord by counting 2 defined areas with the most intense pathology under a 40-fold magnification. Histological evaluation was performed as described in Eugster et al., Eur. J. Immunol., 1999, […].

Where [3] appears, read: Ca-monomethyl fumarate 5 mg/kg bid.

Molecules are shown by their SMILES. “Also recorded” adds a separate entry of the source. Structures can show the parent of a compound that is named as a salt.

Regarding `COC(=O)/C=C/C(=O)OC` [DMF, dimethyl fumarate, reference compound], the “clinical score / disease course” value in experiment [1] (dimethyl fumarate 15 mg/kg body weight bid) is listed as “significantly milder disease course; also recorded: effective to reduce the clinical score up to 72 days p.i”. For the same compound, in experiment [2] (dimethyl fumarate 15 mg/kg bid), the “numbers of CD 3 positive T cells infiltrating the spinal cord” value is “not significantly different”; the “numbers of Mac-3 positive macrophages and microglia infiltrating the spinal cord” value is “not significantly different”; the “axonal loss (relative axonal density)” value is “reduced”; the “level of demyelination (% white matter)” value is given as “reduced”.
Turning to `COC(=O)/C=C/C(=O)O` [MMF, Ca-monomethyl fumarate], the “clinical score / disease course” value in experiment [1] (Ca-monomethyl fumarate 5 mg/kg body weight bid) is on record as “not sufficient to significantly affect the clinical score”. Besides, in experiment [2] (setting [3]), the “numbers of CD 3 positive T cells infiltrating the spinal cord” value is listed as “not significantly different”; the “numbers of Mac-3 positive macrophages and microglia infiltrating the spinal cord” value is listed as “not significantly different”; the “axonal loss (relative axonal density)” value was “reduced demyelination and axonal loss”; the “level of demyelination (% white matter)” value is “reduced demyelination and axonal loss”.

For the origin of these results see patent publication US20100130607A1, “NEUROPROTECTION IN DEMYELINATING DISEASES” (priority 2007, published 2010).
